Reference: ChEMBL document CHEMBL1201862, “PubChem BioAssay data set” (2004)
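Five concentrations, 48 hours, 96-well plates. GI50 is the concentration that inhibits growth by half.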 The source made the active and inactive calls. Rule as the data show it: active = GI50 up to about 1.1 µM and inactive = higher.

Assays:
Experiment in all cases: NCI anticancer screen, dose series, 48 h
KM12 = test system: KM12
Malme-3M = test system: Malme-3M
SNB-75 = test system: SNB-75
BT-549 = test system: BT-549
SNB-19 = test system: SNB-19
786-0 = test system: 786-0
K562 = test system: K562
SN12C = test system: SN12C
SK-MEL-5 = test system: SK-MEL-5
NCI-H460 = test system: NCI-H460
IGROV-1 = test system: IGROV-1
U-251 = test system: U-251
HOP-92 = test system: HOP-92
SK-OV-3 = test system: SK-OV-3
CCRF-CEM = test system: CCRF-CEM
NCI/ADR-RES = test system: NCI/ADR-RES
HOP-62 = test system: HOP-62
M14 = test system: M14
RXF 393 = test system: RXF 393
NCI-H226 = test system: NCI-H226

| SMILES | GI50 (KM12) | GI50 (Malme-3M) | GI50 (SNB-75) | GI50 (BT-549) | GI50 (SNB-19) | GI50 (786-0) | GI50 (K562) | GI50 (SN12C) | GI50 (SK-MEL-5) | GI50 (NCI-H460) | GI50 (IGROV-1) | GI50 (U-251) | GI50 (HOP-92) | GI50 (SK-OV-3) | GI50 (CCRF-CEM) | GI50 (NCI/ADR-RES) | GI50 (HOP-62) | GI50 (M14) | GI50 (RXF 393) | GI50 (NCI-H226) |
| --- | --- | --- | --- | --- | --- | --- | --- | --- | --- | --- | --- | --- | --- | --- | --- | --- | --- | --- | --- | --- |
| O=C1c2ccccc2C(=O)c2c(NCC3CO3)ccc(NCC3CO3)c21 (stereo not given) | 3.85 µM (inactive) | 5.3 µM (inactive) | 26.7 µM (inactive) | 3.15 µM (inactive) | 15.1 µM (inactive) | 0.766 µM (active) | 0.128 µM (active) | 0.456 µM (active) | 1.68 µM (inactive) | 2.39 µM (inactive) | 3.78 µM (inactive) | 1.65 µM (inactive) | 10.3 µM (inactive) | 10.4 µM (inactive) | < 0.01 µM (active) | 1.6 µM (inactive) | 1.55 µM (inactive) | 0.682 µM (active) | 2.21 µM (inactive) | 8.59 µM (inactive) |
| CCCCC(=O)Nc1ccc2cc(C(=O)OC)c(Cl)nc2n1 | 3.15 µM (inactive) | > 100 µM (inactive) | > 100 µM (inactive) | > 100 µM (inactive) | 16.5 µM (inactive) | > 100 µM (inactive) | > 100 µM (inactive) | 50 µM (inactive) | > 90.8 µM (inactive) | 44.2 µM (inactive) | > 100 µM (inactive) | 28.6 µM (inactive) | > 100 µM (inactive) | > 100 µM (inactive) | > 100 µM (inactive) | > 100 µM (inactive) | 7.11 µM (inactive) | > 100 µM (inactive) | > 100 µM (inactive) | > 100 µM (inactive) |
| COc1cc2[nH]c(=O)c3cc(-c4ccccc4)cc4c(Cl)nc(c1OC)c2c43 | 20 µM (inactive) | 6.32 µM (inactive) | > 39.4 µM (inactive) | 43.2 µM (inactive) | 28.1 µM (inactive) | 6.59 µM (inactive) | 38.2 µM (inactive) | 11.7 µM (inactive) | 12.5 µM (inactive) | 21 µM (inactive) | 19.1 µM (inactive) | 16.4 µM (inactive) | 41.8 µM (inactive) | > 47.8 µM (inactive) | 4.88 µM (inactive) | 7.35 µM (inactive) | 32.6 µM (inactive) | 19.4 µM (inactive) | 23.3 µM (inactive) | > 70.1 µM (inactive) |
| COC(=O)[C@]12CCC(C)(C)C[C@H]1C1=CC[C@@H]3[C@@]4(C)CC[C@H](OC5OC(CO)C(O)C(O)C5OC5OC(CO)C(O)C(O)C5O)C(C)(C)[C@@H]4CC[C@@]3(C)[C@]1(C)CC2 (stereo not given in full) | 12.6 µM (inactive) | 11.9 µM (inactive) | 13.5 µM (inactive) | 17.4 µM (inactive) | 14.3 µM (inactive) | 11.2 µM (inactive) | 10.1 µM (inactive) | 4.62 µM (inactive) | 15.8 µM (inactive) | 14.5 µM (inactive) | 14.4 µM (inactive) | 13.2 µM (inactive) | 3.91 µM (inactive) | 20.5 µM (inactive) | 15.7 µM (inactive) | 14.5 µM (inactive) | 12.6 µM (inactive) | 3.91 µM (inactive) | 5.75 µM (inactive) | 3.43 µM (inactive) |
| NC(Cc1ccc(N(CCCl)CCCl)cc1)C(=O)NC(CCC(=O)O)C(=O)O (stereo not given) | > 100 µM (inactive) | > 100 µM (inactive) | > 100 µM (inactive) | > 100 µM (inactive) | > 100 µM (inactive) | > 100 µM (inactive) | > 100 µM (inactive) | > 100 µM (inactive) | > 100 µM (inactive) | > 100 µM (inactive) | > 100 µM (inactive) | > 100 µM (inactive) | > 100 µM (inactive) | > 100 µM (inactive) | > 100 µM (inactive) | > 100 µM (inactive) | > 100 µM (inactive) | > 100 µM (inactive) | > 100 µM (inactive) | > 100 µM (inactive) |
| CC(C)NC(=O)OCc1c(COC(=O)NC(C)C)n(C)c2c1ccc1ccsc12 | 15.3 µM (inactive) | 4.36 µM (inactive) | 6.78 µM (inactive) | 7.16 µM (inactive) | 10.8 µM (inactive) | 6.46 µM (inactive) | 8.97 µM (inactive) | 5.66 µM (inactive) | 10.7 µM (inactive) | 3.24 µM (inactive) | 12.5 µM (inactive) | 8.45 µM (inactive) | 10.1 µM (inactive) | 16.2 µM (inactive) | 2.25 µM (inactive) | 6.75 µM (inactive) | 12.7 µM (inactive) | 8.3 µM (inactive) | 6.98 µM (inactive) | 7.41 µM (inactive) |
| FC(F)(F)c1ccc2nc(Sc3ccc4ccccc4c3)cnc2c1 | > 100 µM (inactive) | > 100 µM (inactive) | > 100 µM (inactive) | > 100 µM (inactive) | > 100 µM (inactive) | 40.5 µM (inactive) | 45.8 µM (inactive) | 73.8 µM (inactive) | 28.1 µM (inactive) | 73.1 µM (inactive) | > 100 µM (inactive) | 25.2 µM (inactive) | > 100 µM (inactive) | > 100 µM (inactive) | 24.4 µM (inactive) | 60 µM (inactive) | 74.8 µM (inactive) | 87.9 µM (inactive) | 21.9 µM (inactive) | 87.9 µM (inactive) |
| CCCCC(C)(C/C=C/[C@@H]1[C@@H](C(O)CCCCCC(=O)OC)C(=O)C[C@H]1O[Si](C)(C)C(C)(C)C)O[Si](C)(C)C (stereo not given in full) | 58.3 µM (inactive) | > 100 µM (inactive) | 56.2 µM (inactive) | > 100 µM (inactive) | > 100 µM (inactive) | > 100 µM (inactive) | 36.5 µM (inactive) | > 100 µM (inactive) | 92.7 µM (inactive) | 83.4 µM (inactive) | > 100 µM (inactive) | 57.5 µM (inactive) | > 100 µM (inactive) | > 100 µM (inactive) | 25.8 µM (inactive) | > 100 µM (inactive) | > 100 µM (inactive) | > 100 µM (inactive) | 54.2 µM (inactive) | > 100 µM (inactive) |
| CCOC(=O)c1sc2nc(SC)nc3c2c1NCN3c1ccccc1Cl | > 100 µM (inactive) | 31.8 µM (inactive) | 24.8 µM (inactive) | 42.7 µM (inactive) | 48.3 µM (inactive) | 24.3 µM (inactive) | > 100 µM (inactive) | > 100 µM (inactive) | 31.5 µM (inactive) | 30.7 µM (inactive) | 63 µM (inactive) | 43.8 µM (inactive) | 25.3 µM (inactive) | 56.6 µM (inactive) | > 100 µM (inactive) | 40.2 µM (inactive) | 40.9 µM (inactive) | > 100 µM (inactive) | 19.3 µM (inactive) | > 100 µM (inactive) |
| C=CCC(CCC(C)=O)(C(=O)OCC)C(=O)OCC | > 100 µM (inactive) | > 100 µM (inactive) | > 100 µM (inactive) | > 100 µM (inactive) | > 100 µM (inactive) | > 100 µM (inactive) | > 100 µM (inactive) | > 100 µM (inactive) | > 100 µM (inactive) | > 100 µM (inactive) | > 100 µM (inactive) | > 100 µM (inactive) | > 100 µM (inactive) | > 100 µM (inactive) | > 100 µM (inactive) | > 100 µM (inactive) | > 100 µM (inactive) | > 100 µM (inactive) | > 100 µM (inactive) | > 100 µM (inactive) |
| NC1=CN(CCCO)C2=N/C(=C\c3ccccc3)C(=O)N12 | > 100 µM (inactive) | > 100 µM (inactive) | > 100 µM (inactive) | > 100 µM (inactive) | > 100 µM (inactive) | > 100 µM (inactive) | > 100 µM (inactive) | > 100 µM (inactive) | > 100 µM (inactive) | > 100 µM (inactive) | > 100 µM (inactive) | > 100 µM (inactive) | > 100 µM (inactive) | > 100 µM (inactive) | > 100 µM (inactive) | > 100 µM (inactive) | > 100 µM (inactive) | > 100 µM (inactive) | > 100 µM (inactive) | > 100 µM (inactive) |
| O=S(=O)(O)c1cc(S(=O)(=O)O)c2c(/N=N/c3cccc4ccccc34)c(O)ccc2c1 | > 100 µM (inactive) | > 100 µM (inactive) | > 100 µM (inactive) | > 100 µM (inactive) | > 100 µM (inactive) | > 100 µM (inactive) | > 100 µM (inactive) | > 100 µM (inactive) | > 100 µM (inactive) | > 100 µM (inactive) | > 100 µM (inactive) | > 100 µM (inactive) | > 100 µM (inactive) | > 100 µM (inactive) | > 100 µM (inactive) | > 100 µM (inactive) | > 100 µM (inactive) | > 100 µM (inactive) | > 100 µM (inactive) | > 100 µM (inactive) |
| Nc1ccc(-c2nc3cc(F)ccc3s2)cc1I | 14.7 µM (inactive) | 26.1 µM (inactive) | 16.1 µM (inactive) | 13.5 µM (inactive) | 21.1 µM (inactive) | 16.2 µM (inactive) | > 77.3 µM (inactive) | 20.9 µM (inactive) | 21.7 µM (inactive) | 0.0276 µM (active) | < 0.01 µM (active) | 13.9 µM (inactive) | 17.3 µM (inactive) | 14.4 µM (inactive) | > 100 µM (inactive) | 18.8 µM (inactive) | 10.2 µM (inactive) | 39.3 µM (inactive) | 15 µM (inactive) | 0.979 µM (active) |
| NS(=O)(=O)c1ccc(/N=N/c2ccc(O)cc2)cc1 | 18.6 µM (inactive) | > 100 µM (inactive) | 19.1 µM (inactive) | 10.5 µM (inactive) | 83.2 µM (inactive) | > 100 µM (inactive) | 7.46 µM (inactive) | 64 µM (inactive) | 28.8 µM (inactive) | 31.1 µM (inactive) | 70 µM (inactive) | 61 µM (inactive) | 75.3 µM (inactive) | > 100 µM (inactive) | 62.1 µM (inactive) | 26.8 µM (inactive) | 92 µM (inactive) | 33.2 µM (inactive) | > 100 µM (inactive) | 19.3 µM (inactive) |
